According to patent EP0570714B1, “Use of aminoalcohol-N-acylderivatives for the manufacture of a medicament for the treatment of neurogenic endoneural oedema of the peripheral nerve” (LIFEGROUP S.p.A., priority 1992, dated 1993):
Values joined by “and” are separate entries in the source; they are usually repeats but may differ in a detail not shown here. Identical values can stand only once.

What was measured:
[1] = Physical chemical characteristics: solubility; format: physicochemical
Text: The physical chemical characteristics of the N-PEA product synthesized according to the present example were the following : […]

[2] = tested on: mast cells; assay: Mast cell degranulation after crushing of the sciatic nerve (in vivo, histological count); set-up: species or system Male Spraugue Dawley Rats; settings: 20 mg/kg intraperitoneally for 15 days, on soy lecithin liposomes, sciatic nerve compression at 16th day, sacrifice three hours after, control average 61.4
Experimental: In order to verify the pharmacological activity of N-acyl derivatives of aminoalcohols, and in particular of N-PEA, under conditions of traumatic noxa due to crushing of the sciatic nerve, and therefore able to induce mast cells degranulation, the following "in vivo" biologic test was carried out.
Male Spraugue Dawley Rats weighing about 200 -250 g were divided into two groups and subjected for 15 days to two different treatments: the first group, being the control group, was intraperitoneally treated with a solution of liposomes of soy lecithin, whereas the second group was intraperitoneally treated with 20 mg/kg N-PEA vehiculated on soy lecithin liposomes.
At the 16th day the animals were subjected to a bland general anesthesia with ethyl ether, thereby proceeding to the operation of the nerve lesion as hereinbelow described. The left sciatic nerve was exposed just in the spot of its entrance to the haunch, by operating a dissection of the muscular bands. The thus exposed sciatic nerve was then repeatedly compressed as closest as possible to its origin, by using a crushing forceps. The wound was temporarily sewn up and the animals were left to recover.
Three hours after the sciatic nerve compression lesion the animals were sacrificed in order to take the sciatic nerve samples and to fix it for the histological analysis with a mixture of acetic acid and formalin. […]

solubility in water [1]: insoluble | solubility in organic solvent ([1]; solvents in which soluble): Hot MetOH, CHCl3, DMSO | solubility in aqueous vehicles ([1]; stated as the reason for choosing the liposome vehicle): poor solubility
Compound: CCCCCCCCCCCCCCCC(=O)NCCO [N-PEA, N-(2-hydroxyethyl)hexadecanamide]
Number of degranulated cells on a total of 100 examined cells, average ([2]; average of 5 rats): 36.6 | Number of degranulated cells on a total of 100 examined cells ([2]; individual rats, 20 mg/kg): 35 and 44 and 37 and 25 and 42
